US20260199284A1, “SPECIFIC VASH COMPOUNDS (SVC) INHIBITORS FOR HEART DISEASES” (MT ACT, priority 2023, published 2026)
“Also recorded” adds a separate entry of the source.

Key:
[1] = target: recombinant human VASH1 (hVASH1) and SVBP complex (Homo sapiens, UniProt Q7L8A9); experiment: In vitro detyrosination assay (ELISA-based) with recombinant human VASH1/SVBP; type: biochemical; details: for inhibition of detyrosinase activity of recombinant human VASH1: recombinant enzyme, dose-response
Procedure: FIG. 3: In vitro detyrosination assays using recombinant human VASH1 (hVASH1) and SVBP complex. ELISA-based method to measure detyrosinase activity. Dose-response allows for accurate determination of the inhibition of the compounds on the target.
We undertook an extensive analysis of the human proteome and sought to identify human proteins that encoded a -EEY sequence at the very C-terminal. […] Following 2 hours exposure of the human cells to the SVC_01 compound, we fixed and analysed by specific immunofluorescence the labelling of detyrosinated tubulin but also that of another posttranslational modification termed acetylation (FIG. 4).

[2] = tested on: tubulin detyrosination in human cells; experiment: Immunofluorescent (high content screening) detection of tubulin detyrosination in human cells; type: cell-based
Procedure: FIG. 4: Immuofluorescent staining of wild type human cells and VASH double knock-outs.
FIG. 5: Immunofluorescent method to detect levels of tubulin detyrosination in human cells. Dose dependent reduction of tubulin detyrosination in human cells is observed after 2 hours treatment with all SVCs. In cellulo IC50 measure for SVC_03=10 nM.
FIG. 30: Immunofluorescent method to detect levels of tubulin detyrosination in human cells. Dose dependent reduction of tubulin detyrosination in human cells is observed after 2 hours treatment with all SVCs.
Since to date no small molecule has been designed to inhibit the enzyme VASH that is responsible for tubulin detyrosination, we engineered various compounds based on the natural substrate of the enzyme. We undertook an extensive analysis of the human proteome and sought to identify human proteins that encoded a -EEY sequence at the very C-terminal. Only 3 proteins matched the criteria including alpha-tubulin. Therefore, we developed 5 compounds that all share a tyrosine in the structure that is essential for the specificity (FIG. 2). […] Using computer-aided drug discovery and iterative cycles of medicinal chemistry work-up followed by ELISA (in vitro) and HCS (in cellulo) testing, we gathered a SAR database containing new chemical entities. The potency and selectivity of these compound is considered within pharmaceutical standards for further development. […] Next, using a human cell-line we assayed the activity of the compound SVC_01 in a cellular system that further gives indication on penetration and cellular efficacy. Following 2 hours exposure of the human cells to the SVC_01 compound, we fixed and analysed by specific immunofluorescence the labelling of detyrosinated tubulin but also that of another posttranslational modification termed acetylation (FIG. 4). […] Although specific, SVC_01 was used at micromolar concentration to obtain full inhibition. With the objective to improve cellular IC50 of our SVCs, we designed compounds that have better cell penetration specifications.

[3] = tested on: human adult cardiomyocytes; experiment: mRNA expression of detyrosination-tyrosination cycle genes in human adult cardiomyocytes; type: cell-based; details: vs vehicle
Procedure: FIG. 34: human adult cardiomyocytes are treated with vehicle or SVC-01 and collected for analysis of mRNA expression of genes involved in the detyrosination-tyrosination cycle.
Specificity of SVC-01 was assayed using both human VASH1 and VASH2 recombinant enzymes. […] Finally, to ensure that regulation of other genes involved in the detyrosination-tyrosination cycle is not affected, we analysed gene expression of all relevant and associated genes following treatment with SVC-02 in adult human cardiomyocytes. We found no alteration of VASH1, VASH2, MATCAP, TTL or SVBP gene expression between vehicle control and SVC-02 treated cells (FIG. 34).

[4] = target: T1, Human rhinovirus (HRV) type 14 3C protease (Human rhinovirus 14, UniProt P03303); experiment: HRV type 14 3C protease assay; type: biochemical; details: increasing dose
T1 construct: Assay using active recombinant Human rhinovirus (HRV) type 14 3C protease
Source text: FIG. 7: Assay using active recombinant Human rhinovirus (HRV) type 14 3C protease Cysteine in absence (neg) or presence (increasing dose) of SVC_01. HRV is a protease with preference for non-aromatic residues at P1′. The optimum recognition site for Human rhinovirus (HRV) type 14 3C protease is LEVLFQ/GP, with a glycine at the P1′ position.
Below, the criteria for selection are detailed: • Protease with documented carboxypeptidase activity towards alpha tubulin. Carboxypeptidase A hydrolyzes peptide bonds of C-terminal residues with aromatic or aliphatic side-chains (FIG. 6). • Cysteine protease with preference for non-aromatic residues at P1′. The optimum recognition site for Human rhinovirus (HRV) type 14 3C protease is LEVLFQ/GP, with a glycine at the P1′ position (FIG. 7). • Cysteine protease with preference for aromatic residues at P1′ site. Alike VASH, cathepsin B prefers an aromatic residue at the P1′ position. This is considered to be our best control for specificity (FIG. 8)

[5] = 2 hours exposure, immunofluorescence

Chain of recombinant human VASH1 (hVASH1) and SVBP complex (Q7L8A9 whole entry): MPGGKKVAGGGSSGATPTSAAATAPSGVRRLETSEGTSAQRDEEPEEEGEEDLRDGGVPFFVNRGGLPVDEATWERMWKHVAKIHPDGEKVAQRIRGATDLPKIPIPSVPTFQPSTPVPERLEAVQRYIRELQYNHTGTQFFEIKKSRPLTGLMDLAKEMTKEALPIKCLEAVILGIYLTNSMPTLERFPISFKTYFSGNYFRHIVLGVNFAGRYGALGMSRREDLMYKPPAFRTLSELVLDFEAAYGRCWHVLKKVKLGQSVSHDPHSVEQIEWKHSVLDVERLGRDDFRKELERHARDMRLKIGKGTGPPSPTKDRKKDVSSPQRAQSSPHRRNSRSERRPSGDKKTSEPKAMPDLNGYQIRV
Chain of recombinant human VASH1 (hVASH1) and SVBP complex (Q8N300 whole entry partner): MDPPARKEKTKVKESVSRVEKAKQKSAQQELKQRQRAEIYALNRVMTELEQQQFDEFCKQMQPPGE
T1 sequence (P03303 1538-1719): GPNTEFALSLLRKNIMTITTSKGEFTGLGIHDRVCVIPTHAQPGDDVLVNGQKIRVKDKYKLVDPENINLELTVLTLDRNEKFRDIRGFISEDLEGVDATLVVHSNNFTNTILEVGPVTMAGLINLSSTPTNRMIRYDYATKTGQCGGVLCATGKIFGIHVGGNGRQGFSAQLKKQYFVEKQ

Row | IC50 on human cells ([2]; human cells) | better inhibition compared to Epo-Y [1] | inhibition of HRV type 14 3C protease [4] | Structure (SMILES) | inhibition of detyrosinase activity of recombinant human VASH1 [1] | expression of VASH1, VASH2, MATCAP, TTL or SVBP genes [3] | level of acetylated tubulin in human cells [2, 5] | level of tubulin detyrosination in human cells [2, 5]
1 | low nanomolar | – | – | CCOC(=O)[C@H](Cc1ccc(OCC)cc1)NC(=O)[C@H]1O[C@@H]1C(=O)N[C@@H](Cc1ccc(OCC)cc1)C(=O)OCC [SVC_02] | inactive in its prodrug form; also recorded: inactive toward the therapeutic target | no alteration | – | –
2 | – | about 100 × | does not reduce activity | O=C(O)CCC[C@H](NC(=O)[C@H]1O[C@@H]1C(=O)C[C@@H](Cc1ccc(OCc2ccccc2)cc1)C(=O)O)C(=O)NCCc1ccccc1 [SVC_01] | efficiently inhibited; also recorded: efficient in inhibiting | did not alter expression | remain unaffected; also recorded: without affecting the level of acetylation | background signal comparable to that observed in VASH 2KO cells; also recorded: completely reduced the level of tubulin detyrosination
